Biological target: T1, Pho1 (free form) (Ipomoea batatas, UniProt P27598)
T1 construct: native, purified from storage roots; 110-kDa band; 220-kDa homodimer
T1 sequence (P27598 44-955): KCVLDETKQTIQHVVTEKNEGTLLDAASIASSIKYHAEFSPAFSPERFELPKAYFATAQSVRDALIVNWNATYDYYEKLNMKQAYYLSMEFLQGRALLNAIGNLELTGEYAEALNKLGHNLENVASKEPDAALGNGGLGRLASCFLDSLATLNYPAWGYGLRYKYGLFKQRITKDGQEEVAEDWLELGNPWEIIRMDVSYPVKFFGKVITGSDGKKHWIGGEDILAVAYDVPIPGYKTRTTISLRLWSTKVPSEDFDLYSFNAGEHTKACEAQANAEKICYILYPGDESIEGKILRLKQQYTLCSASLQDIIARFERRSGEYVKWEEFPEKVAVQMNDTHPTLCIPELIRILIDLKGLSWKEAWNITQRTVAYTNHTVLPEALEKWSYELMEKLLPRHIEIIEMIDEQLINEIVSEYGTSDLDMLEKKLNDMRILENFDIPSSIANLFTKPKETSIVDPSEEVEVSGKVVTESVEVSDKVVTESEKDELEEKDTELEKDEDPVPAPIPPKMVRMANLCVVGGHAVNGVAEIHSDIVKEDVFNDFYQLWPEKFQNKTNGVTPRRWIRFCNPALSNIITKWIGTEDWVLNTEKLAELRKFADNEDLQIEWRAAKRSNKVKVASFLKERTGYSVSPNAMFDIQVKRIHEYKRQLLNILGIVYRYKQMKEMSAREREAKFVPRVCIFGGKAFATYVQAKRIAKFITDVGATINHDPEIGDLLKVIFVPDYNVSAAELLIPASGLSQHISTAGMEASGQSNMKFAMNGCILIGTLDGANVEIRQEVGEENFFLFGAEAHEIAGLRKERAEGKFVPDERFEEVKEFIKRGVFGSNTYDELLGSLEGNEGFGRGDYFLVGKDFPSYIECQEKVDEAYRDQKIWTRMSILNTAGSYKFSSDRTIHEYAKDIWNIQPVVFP
Experiment: Glc-1-P production, coupled phosphoglucomutase / Glc-6-P dehydrogenase (NADPH)
Type: biochemical
Conditions: 0.5 mM substrate, 0.5 mM inorganic phosphate, 50 mM sodium acetate pH 6.0, 37°C, 1 h; phosphorolysis

SMILES | Glc-1-P production, coupled phosphoglucomutase / Glc-6-P dehydrogenase (NADPH)
OC[C@H]1O[C@H](O[C@H]2[C@H](O)[C@@H](O)[C@@H](O[C@H]3[C@H](O)[C@@H](O)[C@@H](O[C@H]4[C@H](O)[C@@H](O)[C@@H](O[C@H]5[C@H](O)[C@@H](O)C(O)O[C@@H]5CO)O[C@@H]4CO)O[C@@H]3CO)O[C@@H]2CO)[C@H](O)[C@@H](O)[C@@H]1O (some centres unmarked) [G5, maltopentaose] | displayed high catalytic activity with G5, G6, G7, or dextrin to produce Glc-1-P
OC[C@H]1O[C@H](O[C@H]2[C@H](O)[C@@H](O)[C@@H](O[C@H]3[C@H](O)[C@@H](O)[C@@H](O[C@H]4[C@H](O)[C@@H](O)[C@@H](O[C@H]5[C@H](O)[C@@H](O)[C@@H](O[C@H]6[C@H](O)[C@@H](O)C(O)O[C@@H]6CO)O[C@@H]5CO)O[C@@H]4CO)O[C@@H]3CO)O[C@@H]2CO)[C@H](O)[C@@H](O)[C@@H]1O (some centres unmarked) [G6, maltohexaose] | displayed high catalytic activity with G5, G6, G7, or dextrin to produce Glc-1-P
